Results published in paper PMC3692398 (Biochemical pharmacology, 2013).
Read-outs that look alike come from different tables or passages of the source.

Legend:
h5-HT2C receptor [1] = molecular target: T1, h5-HT2C receptor (Homo sapiens, UniProt P28335); experiment: biochemical; assay type: binding
T1 sequence (P28335 33-458): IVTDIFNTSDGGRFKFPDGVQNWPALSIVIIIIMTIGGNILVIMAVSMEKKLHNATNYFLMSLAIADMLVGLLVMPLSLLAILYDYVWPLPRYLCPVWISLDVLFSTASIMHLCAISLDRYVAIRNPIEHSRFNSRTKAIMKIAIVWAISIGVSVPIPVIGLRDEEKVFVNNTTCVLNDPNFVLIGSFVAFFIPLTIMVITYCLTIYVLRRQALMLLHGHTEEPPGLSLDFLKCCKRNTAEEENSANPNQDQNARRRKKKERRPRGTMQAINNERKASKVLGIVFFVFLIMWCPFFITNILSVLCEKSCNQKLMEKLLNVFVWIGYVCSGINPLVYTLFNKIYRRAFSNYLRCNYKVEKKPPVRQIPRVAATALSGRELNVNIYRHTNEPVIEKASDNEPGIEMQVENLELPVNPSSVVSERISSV

hDAT [2] = molecular target: T2, hDAT (Homo sapiens, UniProt Q01959); experiment: Inhibition of [125I]RTI-55 binding, HEK-hDAT membranes; conditions: read-out: Inhibition of [125I]RTI-55 binding Ki ± sem, hDAT; HEK-hDAT membranes
hNET [3] = molecular target: T3, hNET (Homo sapiens, UniProt P23975); experiment: biochemical; assay type: binding; conditions: read-out: Inhibition of [125I]RTI-55 binding Ki ± sem, hNET
hDAT [4] = molecular target: T2, hDAT; experiment: Inhibition of [3H]DA uptake, intact HEK-hDAT cells; assay type: cell-based; conditions: for ratio of binding Ki to uptake IC50, hDAT: [125I]RTI-55 Ki / [3H]DA uptake IC50; for IC50: read-out: Inhibition of [3H]neurotransmitter uptake IC50 ± sem, hDAT [3H]DA, 20 nM [3H]DA, intact cells
hSERT [5] = molecular target: T4, hSERT (Homo sapiens, UniProt P31645); experiment: Inhibition of [3H]5-HT uptake, intact HEK-hSERT cells; assay type: cell-based; conditions: for ratio of binding Ki to uptake IC50, hSERT: [125I]RTI-55 Ki / [3H]5-HT uptake IC50; for IC50: read-out: Inhibition of [3H]neurotransmitter uptake IC50 ± sem, hSERT [3H]5-HT, 20 nM [3H]5-HT, intact cells
hNET [6] = molecular target: T3, hNET; experiment: cell-based; assay type: cell-based; conditions: for IC50: read-out: Inhibition of [3H]neurotransmitter uptake IC50 ± sem, hNET [3H]NE
hDAT [7] = molecular target: T2, hDAT; experiment: Superfusion release of preloaded [3H]DA from HEK-hDAT cells; assay type: cell-based; conditions: for releasing efficacy, hDAT [3H]DA: concentrations ranging from 1 nM to 100 µM; for EC50: read-out: Drug-induced release of [3H]neurotransmitter EC50 ± sem, hDAT [3H]DA, superfusion, AUC
hSERT [8] = molecular target: T4, hSERT; experiment: Superfusion release of preloaded [3H]5-HT from HEK-hSERT cells; assay type: cell-based; conditions: for EC50: read-out: Drug-induced release of [3H]neurotransmitter EC50 ± sem, hSERT [3H]5-HT, superfusion, AUC
hNET [9] = molecular target: T3, hNET; experiment: Superfusion release of preloaded [3H]NE from HEK-hNET cells; assay type: cell-based; conditions: for releasing efficacy, hNET [3H]NE: concentrations ranging from 10 nM to 100 µM; for EC50: read-out: Drug-induced release of [3H]neurotransmitter EC50 ± sem, hNET [3H]NE, superfusion, AUC; for % maximum release ± sem, hNET [3H]NE: relative to maximal AUC induced by METH (0.3 or 1 µM)
hVMAT2 [10] = molecular target: T5, hVMAT2 (Homo sapiens, UniProt Q05940); experiment: Inhibition of [3H]DHTB binding, HEK-hVMAT2 membranes; conditions: read-out: Inhibition of [3H]DHTB binding Ki ± sem, hVMAT2
hVMAT2 [11] = molecular target: T5, hVMAT2; experiment: Inhibition of [3H]5-HT uptake, HEK-hVMAT2 membrane preparation; assay type: biochemical; conditions: read-out: Inhibition of [3H]5-HT uptake IC50 ± sem, hVMAT2; 40 nM [3H]5-HT, 2 mM MgATP
hVMAT2 [12] = molecular target: T5, hVMAT2; experiment: Superfusion release of preloaded [3H]NE from HEK-hVMAT2 cells; assay type: cell-based; conditions: for EC50: read-out: Drug-induced release of [3H]NE EC50 ± sem, hVMAT2, superfusion
h5-HT1A receptor [13] = molecular target: T6, h5-HT1A receptor (Homo sapiens, UniProt P08908); experiment: [3H]8-OH-DPAT binding, HEK-h5-HT1A; conditions: read-out: Inhibition of radioligand binding Ki ± sem, h5-HT1A [3H]8OH-DPAT
T6 sequence (P08908 1-422): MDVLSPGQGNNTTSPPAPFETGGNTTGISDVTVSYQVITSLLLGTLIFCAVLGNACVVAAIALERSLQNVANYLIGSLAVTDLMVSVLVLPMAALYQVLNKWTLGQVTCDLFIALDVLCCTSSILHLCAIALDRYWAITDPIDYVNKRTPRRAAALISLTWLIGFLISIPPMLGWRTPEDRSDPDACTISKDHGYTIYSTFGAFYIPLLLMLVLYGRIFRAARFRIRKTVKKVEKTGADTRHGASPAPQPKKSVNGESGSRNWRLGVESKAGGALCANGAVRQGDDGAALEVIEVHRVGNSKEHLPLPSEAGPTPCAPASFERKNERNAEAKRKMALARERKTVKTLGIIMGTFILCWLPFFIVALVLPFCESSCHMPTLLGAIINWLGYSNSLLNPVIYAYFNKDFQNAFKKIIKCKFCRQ

h5-HT2A receptor [14] = molecular target: T7, h5-HT2A receptor (Homo sapiens, UniProt P28223); experiment: [125I]DOI binding, HEK-h5-HT2A; conditions: read-out: Inhibition of radioligand binding Ki ± sem, h5-HT2A [125I]DOI
h5-HT1A receptor [15] = molecular target: T6, h5-HT1A receptor; experiment: Stimulation of [35S]GTPγS binding, HEK-h5-HT1A membranes; assay type: biochemical; conditions: for h5-HT1A Stimulation of [35S]GTPγS binding % maximum stimulation ± sem: normalized to the maximal stimulation by 5-HT; for EC50: read-out: h5-HT1A Stimulation of [35S]GTPγS binding EC50 ± sem
h5-HT2A receptor [16] = molecular target: T7, h5-HT2A receptor; experiment: Inhibition of 5-HT-stimulated IP-1 formation; assay type: cell-based; conditions: 100 nM 5-HT; for h5-HT2A Inhibition of 5-HT-stimulated IP-1 formation % maximum inhibition ± sem: normalized to maximal inhibition by ketanserin (10 µM); for IC50: read-out: h5-HT2A Inhibition of 5-HT-stimulated IP-1 formation IC50 ± sem
h5-HT2C receptor [17] = molecular target: T1, h5-HT2C receptor; experiment: Inhibition of 5-HT-stimulated IP-1 formation; assay type: cell-based; conditions: for h5-HT2C Inhibition of 5-HT-stimulated IP-1 formation % maximum inhibition ± sem: 100 nM 5-HT, normalized to maximal inhibition by SB242084 (1 µM)
hSigma1 receptor = hSigma1 receptor (Homo sapiens, UniProt Q99720); experiment: [3H]; assay type: binding
[18] = read-out: Inhibition of radioligand binding Ki ± sem, h5-HT2C [125I]DOI
[19] = read-out: Inhibition of [3H]pentazocine binding Ki ± sem, hSigma1

T2 sequence (Q01959 whole entry): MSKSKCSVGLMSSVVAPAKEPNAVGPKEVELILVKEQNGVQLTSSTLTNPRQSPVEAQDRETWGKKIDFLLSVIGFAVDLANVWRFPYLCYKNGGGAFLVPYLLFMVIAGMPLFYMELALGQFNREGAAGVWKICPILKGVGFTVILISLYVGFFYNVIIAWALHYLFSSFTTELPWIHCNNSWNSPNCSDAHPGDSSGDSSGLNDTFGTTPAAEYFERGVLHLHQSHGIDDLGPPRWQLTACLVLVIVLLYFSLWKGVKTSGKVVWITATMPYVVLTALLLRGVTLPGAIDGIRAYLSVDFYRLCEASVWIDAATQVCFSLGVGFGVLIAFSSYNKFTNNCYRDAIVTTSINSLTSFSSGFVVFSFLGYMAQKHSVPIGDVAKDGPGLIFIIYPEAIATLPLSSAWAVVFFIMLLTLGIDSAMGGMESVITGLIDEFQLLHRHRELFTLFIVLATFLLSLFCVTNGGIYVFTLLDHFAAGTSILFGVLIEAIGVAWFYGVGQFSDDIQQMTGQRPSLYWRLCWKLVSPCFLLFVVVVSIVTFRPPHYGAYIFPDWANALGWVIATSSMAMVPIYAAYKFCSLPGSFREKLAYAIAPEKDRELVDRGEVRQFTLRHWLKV
T7 sequence (P28223 whole entry): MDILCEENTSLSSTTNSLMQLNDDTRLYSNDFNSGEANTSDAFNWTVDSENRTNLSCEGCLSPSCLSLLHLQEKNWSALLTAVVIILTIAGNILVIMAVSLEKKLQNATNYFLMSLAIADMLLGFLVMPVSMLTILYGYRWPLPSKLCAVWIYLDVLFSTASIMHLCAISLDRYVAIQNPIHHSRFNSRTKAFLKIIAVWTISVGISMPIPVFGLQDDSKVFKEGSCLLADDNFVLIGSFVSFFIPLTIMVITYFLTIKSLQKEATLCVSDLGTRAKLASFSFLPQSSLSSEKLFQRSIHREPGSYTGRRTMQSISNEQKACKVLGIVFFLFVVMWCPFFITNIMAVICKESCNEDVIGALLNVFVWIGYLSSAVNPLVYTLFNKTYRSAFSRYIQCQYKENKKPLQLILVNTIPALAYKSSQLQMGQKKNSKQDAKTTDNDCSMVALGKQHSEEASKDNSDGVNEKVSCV
T4 sequence (P31645 whole entry): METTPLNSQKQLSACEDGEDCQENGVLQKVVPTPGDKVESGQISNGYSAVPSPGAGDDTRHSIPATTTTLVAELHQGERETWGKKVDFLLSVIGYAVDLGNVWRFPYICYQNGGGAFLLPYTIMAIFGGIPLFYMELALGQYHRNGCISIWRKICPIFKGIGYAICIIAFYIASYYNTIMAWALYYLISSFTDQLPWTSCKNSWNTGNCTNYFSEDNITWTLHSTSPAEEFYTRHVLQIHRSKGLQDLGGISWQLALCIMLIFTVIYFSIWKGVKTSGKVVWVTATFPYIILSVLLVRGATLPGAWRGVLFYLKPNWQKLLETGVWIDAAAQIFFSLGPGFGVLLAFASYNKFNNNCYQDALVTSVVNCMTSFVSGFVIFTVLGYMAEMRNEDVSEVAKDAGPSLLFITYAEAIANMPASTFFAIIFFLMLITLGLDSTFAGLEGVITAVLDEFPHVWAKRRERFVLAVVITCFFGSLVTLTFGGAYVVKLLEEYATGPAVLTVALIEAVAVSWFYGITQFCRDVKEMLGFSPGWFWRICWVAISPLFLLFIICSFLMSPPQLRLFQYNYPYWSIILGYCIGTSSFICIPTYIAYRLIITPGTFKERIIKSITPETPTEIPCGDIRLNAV
T3 sequence (P23975 whole entry): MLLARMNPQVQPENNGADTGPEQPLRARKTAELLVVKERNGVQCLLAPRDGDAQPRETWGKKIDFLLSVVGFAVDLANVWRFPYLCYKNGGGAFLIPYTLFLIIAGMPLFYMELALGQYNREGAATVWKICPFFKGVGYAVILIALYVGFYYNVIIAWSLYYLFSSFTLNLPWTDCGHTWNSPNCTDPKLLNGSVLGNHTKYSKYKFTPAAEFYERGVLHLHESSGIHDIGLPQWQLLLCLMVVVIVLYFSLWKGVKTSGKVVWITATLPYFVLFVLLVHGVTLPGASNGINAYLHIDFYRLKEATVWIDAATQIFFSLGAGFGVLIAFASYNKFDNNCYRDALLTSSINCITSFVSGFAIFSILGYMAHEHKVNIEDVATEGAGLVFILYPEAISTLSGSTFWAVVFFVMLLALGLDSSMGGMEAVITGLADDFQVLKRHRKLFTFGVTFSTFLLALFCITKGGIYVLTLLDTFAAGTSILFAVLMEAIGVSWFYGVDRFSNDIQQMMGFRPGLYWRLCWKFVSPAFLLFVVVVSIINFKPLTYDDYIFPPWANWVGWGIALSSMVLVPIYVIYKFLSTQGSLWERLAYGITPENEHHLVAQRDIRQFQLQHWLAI
T5 sequence (Q05940 whole entry): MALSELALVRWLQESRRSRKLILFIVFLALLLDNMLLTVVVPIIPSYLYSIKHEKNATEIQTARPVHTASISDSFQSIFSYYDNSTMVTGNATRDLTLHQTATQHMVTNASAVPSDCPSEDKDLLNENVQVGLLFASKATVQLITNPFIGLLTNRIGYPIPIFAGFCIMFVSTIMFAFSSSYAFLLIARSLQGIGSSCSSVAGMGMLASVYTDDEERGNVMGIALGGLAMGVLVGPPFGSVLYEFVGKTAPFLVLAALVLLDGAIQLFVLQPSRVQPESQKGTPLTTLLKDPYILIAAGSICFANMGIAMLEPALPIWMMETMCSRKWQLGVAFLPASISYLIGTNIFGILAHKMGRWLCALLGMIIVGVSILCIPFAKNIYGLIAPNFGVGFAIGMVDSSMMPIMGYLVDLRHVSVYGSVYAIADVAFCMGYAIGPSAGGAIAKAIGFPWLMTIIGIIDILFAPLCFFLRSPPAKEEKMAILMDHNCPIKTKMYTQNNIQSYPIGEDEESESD
hSigma1 receptor, sequence (Q99720 whole entry): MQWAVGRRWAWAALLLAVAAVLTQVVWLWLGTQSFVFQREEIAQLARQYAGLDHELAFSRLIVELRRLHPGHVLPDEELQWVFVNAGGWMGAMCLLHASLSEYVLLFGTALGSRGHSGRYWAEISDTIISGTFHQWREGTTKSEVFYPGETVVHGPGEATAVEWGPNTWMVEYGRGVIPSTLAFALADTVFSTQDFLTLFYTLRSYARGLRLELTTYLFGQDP

## COc1cc(CC(C)N)c(OC)cc1I (racemic) [[^125I]DOI, (±)-1-(2,5,-dimethoxy-4-iodophenyl)-2-aminopropane, reference compound]
h5-HT2C receptor [1]; read-out: Kd of radioligand, HEK-H5HT2C
  Kd: 0.00418 ± 0.00046 µM

## CCC(NC)C(=O)c1ccc2c(c1)OCO2 (stereo not drawn) [Butylone]
hDAT [2]
  Ki: 1.73 ± 0.27 µM
hNET [3]; HEK-hNET membranes
  Ki: 7.98 ± 0.55 µM
hDAT [4]
  ratio of binding Ki to uptake IC50, hDAT: 8.2
  IC50: 0.211 ± 0.054 µM
hSERT [5]
  ratio of binding Ki to uptake IC50, hSERT: 5.3
  IC50: 1.97 ± 0.43 µM
hNET [6]; [125I]RTI-55 Ki / [3H]NE uptake IC50
  ratio of binding Ki to uptake IC50, hNET: 7.5
hNET [6]; 20 nM [3H]NE, intact cells
  IC50: 1.06 ± 0.24 µM
hDAT [7]
  % maximum release ± sem, hDAT [3H]DA: 5.4 ± 3.8%
  releasing efficacy, hDAT [3H]DA: minimal releasing efficacy
  EC50: > 10 µM
hSERT [8]
  % maximum release ± sem, hSERT [3H]5-HT: 30.1 ± 6.5%
  EC50: 3.1 ± 1.4 µM
hNET [9]
  releasing efficacy, hNET [3H]NE: minimal releasing efficacy
  EC50: > 100 µM
  % maximum release ± sem, hNET [3H]NE: 3.6 ± 2.2%
hVMAT2 [10]
  Ki: 730 ± 110 µM
hVMAT2 [11]
  IC50: 162 ± 55 µM
hVMAT2 [12]
  Release of [3H]NE % maximum release ± sem or range, hVMAT2: 17.4 ± 1.1%
  EC50: 4.4 ± 0.52 µM
h5-HT1A receptor [13]
  Ki: > 96 µM
h5-HT2A receptor [14]
  Ki: 118 ± 17 µM
h5-HT2C receptor [1]; [18]
  Ki: 41 ± 12 µM
h5-HT1A receptor [15]
  h5-HT1A Stimulation of [35S]GTPγS binding % maximum stimulation ± sem: 52 ± 13%
  EC50: 440 ± 110 µM
h5-HT2A receptor [16]
  h5-HT2A Inhibition of 5-HT-stimulated IP-1 formation % maximum inhibition ± sem: 95.9 ± 4.1%
  IC50: 410 ± 110 µM
h5-HT2C receptor [17]
  h5-HT2C Inhibition of 5-HT-stimulated IP-1 formation % maximum inhibition ± sem: 11 ± 12%
hSigma1 receptor; [19]
  Ki: 7.9 ± 1.8 µM

## CCCC(C(=O)c1ccc2ccccc2c1)N1CCCC1 (stereo not drawn) [Naphyrone, naphthylpyrovalerone]
hDAT [2]
  Ki: 0.0108 ± 0.00076 µM
hNET [3]
  Ki: 0.059 µM
hDAT [4]
  ratio of binding Ki to uptake IC50, hDAT: less than six
  IC50: 0.0126 ± 0.0031 µM
hDAT [4]; other target proteins vs biogenic amine transporters
  fold less potent at other target proteins than at biogenic amine transporters: 60–350 fold
hSERT [5]
  ratio of binding Ki to uptake IC50, hSERT: less than six
  IC50: 0.0593 ± 0.0097 µM
hNET [6]
  ratio of binding Ki to uptake IC50, hNET: less than six
  IC50: 0.035 µM
hDAT [7]
  releasing efficacy, hDAT [3H]DA: minimal releasing efficacy
  EC50: > 100 µM
hDAT [7]; relative to maximal AUC induced by METH (1 or 10 µM)
  % maximum release ± sem, hDAT [3H]DA: < 6%
hSERT [8]
  % maximum release ± sem, hSERT [3H]5-HT: 20.1 ± 9.3%
  EC50: 7.5 ± 3 µM
hSERT [8]; concentrations ranging from 1 nM to 100 µM
  releasing efficacy, hSERT [3H]5-HT: minimal releasing efficacy
hNET [9]
  releasing efficacy, hNET [3H]NE: minimal releasing efficacy
  EC50: > 100 µM
  % maximum release ± sem, hNET [3H]NE: 36 ± 18%
hVMAT2 [10]
  Ki: 119 ± 20 µM
hVMAT2 [11]
  IC50: 21.4 ± 7.1 µM
hVMAT2 [12]
  EC50: > 100 µM
hVMAT2 [12]; relative to maximal AUC induced by METH (100 µM or 1 mM)
  Release of [3H]NE % maximum release ± sem or range, hVMAT2: 34 ± 14%
hVMAT2 [12]; relative to maximal AUC induced by METH (100 µM or 1 mM), listed as naphyrone
  Release of [3H]NE % maximum release ± sem or range, hVMAT2: less than 35%
h5-HT1A receptor [13]
  Ki: 4.64 ± 0.6 µM
h5-HT2A receptor [14]
  Ki: 17.7 ± 2.6 µM
h5-HT2C receptor [1]; [18]
  Ki: 23.2 µM
h5-HT1A receptor [15]
  h5-HT1A Stimulation of [35S]GTPγS binding % maximum stimulation ± sem: 80 ± 15%
  EC50: 116 ± 30 µM
h5-HT2A receptor [16]
  h5-HT2A Inhibition of 5-HT-stimulated IP-1 formation % maximum inhibition ± sem: 98.18 ± 0.94%
  IC50: 65 ± 11 µM
h5-HT2C receptor [17]
  h5-HT2C Inhibition of 5-HT-stimulated IP-1 formation % maximum inhibition ± sem: 32 ± 14%
hSigma1 receptor; [19]
  Ki: 0.509 ± 0.052 µM

## CC(N)Cc1ccc(Cl)cc1 (stereo not drawn) [PCA, p-chloroamphetamine, reference compound]
hSERT [8]
  % maximum release ± sem, hSERT [3H]5-HT: 106.4 ± 2.0%
  EC50: 0.8 ± 0.27 µM

## CCC1(O)CC2c3cc(OC)c(OC)cc3CCN2CC1CC(C)C [RO4-1284, (2R,2S,11bs)-2-ethyl-3-isobutyl-9,10-dimethoxy-2,2,4,6,7,11b-hexahydro-1H-pyrido[2,1-a]isoquinolin-2-ol, reference compound]
hVMAT2 [10]
  Ki: 0.15 ± 0.015 µM
hVMAT2 [11]
  IC50: 0.098 ± 0.032 µM

## Cc1cc2c(cc1Cl)N(C(=O)Nc1ccc(Oc3cccnc3C)nc1)CC2 [SB242084, reference compound]
h5-HT2C receptor [1]
  Ki: 0.00247 µM
h5-HT2C receptor [17]
  IC50: 0.00028 ± 0.00012 µM

## O=C(CCCN1CCC2(CC1)C(=O)NCN2c1ccccc1)c1ccc(F)cc1 [Spiperone, reference compound]
hSigma1 receptor; Inhibition of [3H]pentazocine binding Ki ± sem, hSigma1
  Ki: 1.31 ± 0.24 µM
